Literature values, collected in paper PMC6332596 (Journal of Hematology & Oncology, 2019).

Parameters: method as in PMID 25933833, PMID 21131552
Details: compared with chiauranib; cited from earlier work

Row | SMILES | DLTs in phase I trials
1 | Nc1ncc(-c2cnn(CCO)c2)c2scc(-c3ccc(NC(=O)Nc4cccc(F)c4)cc3)c12 [Ilorasertib] | more DLTs, such as pancreatic disease and hypertension, fatigue, cholecystitis, and QTc prolonged
2 | Cc1cc(Nc2cc(N3CCN(C)CC3)nc(/C=C/c3ccccc3)n2)n[nH]1 [ENMD-2076] | more DLTs, such as pancreatic disease and hypertension, fatigue, cholecystitis, and QTc prolonged
